{
  "source": "patent US8609695B2",
  "about": "“Methods of treating and/or suppressing insulin resistance” (Endorecherche, Inc., priority 1999, dated 2013)",
  "key": {"[1]": {"system": "human breast cancer MCF-7 cells", "assay": "Proliferation of MCF-7 cell line, DNA content (Example 12)", "assay_type": "cell-based", "conditions": "MCF-7 cells", "excerpt": "MCF-7 human breast cancer cells were obtained from the American Type Culture Collection # HTB 22 at passage 147 and routinely grown in phenol red-free Dulbecco's Modified Eagle's-Ham's F12 medium, the supplements mentioned above and 5% FBS. The MCF-7 human breast adenocarcinoma cell line was derived from the pleural effusion of a patient. MCF-7 cells were used between passages 148 and 165 and subcultured weekly.\nCells in their late logarithmic growth phase were harvested with 0.1% pancreatin (Sigma) and resuspended in the appropriate medium containing 50 ng bovine insulin/ml and 5% (v/v) FBS treated twice with dextran-coated charcoal to remove endogenous steroids. Cells were plated in 24-well Falcon plastic culture plates (2 cm2/well) at the indicated density and allowed to adhere to the surface of the plates for 72 h. […] Control cells received only the ethanolic vehicle (0.1% EtOH,v/v). Cells were incubated for the specified time intervals with medium changes at 2- or 3-day intervals. Cell number was determined by measurement of DNA content.\nDose-response curves as well IC50 values were calculated using a weighted iterative nonlinear least-squares regression. All results are expressed as means±SEM."}, "[2]": {"system": "ovariectomized female rats", "assay": "Uterine weight, fat and lipid, 20-day treatment (Example 13)", "assay_type": "in vivo, Rattus norvegicus", "conditions": "20 days", "description": "The objective of this study was to compare the effect on uterine, weight, fat and blood lipids following treatment with EM-652.HCl, ERA-923 and lasofoxifene, administered alone or in combination with EM-652.HCl, to ovariectomized female rats. For this purpose, each compound was administered orally for 20 days to ovariectomized female rats and at the end of the treatment period, the uterus and fat were collected and weighed.\nd) Diet: • Certified Rodent feed (Lab Diet #5002, pellets) and tap water were provided ad libitum. Randomization:\nSeventy rats were separated into 7 groups of 9 to 11 animals for conduct of the study outlined below:\nAnimals from groups 2 to 9 were ovariectomized under Isoflurane-induced anesthesia on Day 7 of the study.\nThe vehicle or tested compounds were given as suspension in 0.4% methylcellulose by oral gavage (0.5 ml/gavage/rat) from Day 2 to Day 21 of the study.\nRats were weighed on Study Day 1 and at the necropsy (SD 22).\nApproximately 24 hours after the last dosing, overnight fasted rats under Isoflurane-induced anesthesia were killed by exsanguination at the abdominal aorta.\nUteri and retroperitonal adipose tissue were removed and weighed."}, "[3]": {"system": "ovariectomized female rats", "assay": "SERM comparison, energy balance and lipid-lipoprotein metabolism (Example 10)", "assay_type": "in vivo, Rattus norvegicus", "conditions": "OVX rats, 20 days", "description": "For this purpose, tested compounds were administered by oral gavage for 20 days (0.5 mg/rat for each compound; 0.5 ml/rat) in 0.4% methylcellulose to ovariectomized female rats.\nd) Diet: • During acclimation period, rats received a certified rodent diet (Lab Diet #5002, pellet) and tap water ad libitum while during study period, they received a high carbonhydrate diet (diet #3) and tap water ad libitum. The diet was composed of (g/100 g): Corn starch, 31.2; Dextrose, 31.2; Casein, 20.0; corn oil, 6.4; dl-Methionine, 0.3; Vitamine mix, 1.0; AIN-76 mineral mix, 4.9; fiber, 5.0. Rats were fasted (with access to water only) around 07 h00 the morning of their necropsy Randomization:\nTest group: Seventy-seven rats were assigned to 8 groups of 9-10 rats for conduct of the study outlined below.\nOn day 0 of the study, rats from group 2 to 8 were ovariectomized (by bilateral flank incision) under Isoflurane anesthesia. Rats from group 1 were sham-operated.\nRats were weighed on day 0 (surgery) and then, every 2 days during study period as well as on the day of necropsy.\nFood consumption was evaluated every 2 days.\nIn order to determine the effect of treatments on fat percentage, body composition was measured on Day 17 of the study using dual energy x-ray absorptiometry (DEXA; QDR 4500A, Hologic, Waltham, Mass.).\nOn day 21 of the study, approximately 24 hours after the last dosing and 6 hours of fasting, animals under Ketamine-Xylazine anesthesia were killed by exsanguination at the abdominal aorta.\nBlood lipids (Total cholesterol and Triglycerides) and glucose were measured on frozen serum samples using the Boehringer Mannheim Diagnostic Hitachi 911 Analyzer (Boehringer Mannheim Diagnostic Laboratory Systems). Circulating hormones and substrates (Insulin and leptin) were measured on serum sample using the following kits: • Insulin: Linco RIA kit • Leptin: Linco RIA kit Organs and Tissues Collected\nThe following tissues were collected and weighed: • Muscle (right soleus and right VLM), fat (right retroperitoneal and right inguinal), and brown adipose tissue.\nA piece of ˜0.1 g of all tissues (except uterus and vagina) were frozen in liquid nitrogen and kept at −80 C for later determination of lipoprotein-lipase (LPL) activity."}, "intact female rats": {"system": "intact female rats", "assay": "6-month treatment, fat accumulation in intact female rats receiving or not LHRH-A (Example 5)", "assay_type": "in vivo, Rattus norvegicus", "conditions": "6-month LHRH-A treatment", "description": "The objective of this study is to determine the effect on fat of treatment with EM-652.HCl and dehydroepiandrosterone (DHEA) in intact female rats receiving or not a luteinizing hormone releasing hormone agonist (LHRH-A, LHRH ethylamide diacetate). For this purpose, intact female rats, treated or not with LHRH-A (2 μg/rat), received daily administration of EM-652.HCl (2.5 mg/kg) and DHEA (100 mg/kg), alone or in combination, for 6 months. EM-652.HCl was administered orally, DHEA was applied topically while LHRH-A was injected subcutaneously. All treatments were administered once daily.\nOne hundred twenty rats were separated into 8 groups of 15 animals for conduct of the study outlined below:\nThe LHRH-A is available in solution at a concentration of 1.0 mg/ml. We diluted this concentrated solution (in order to obtain a final concentration of 0.004 mg/ml) by using the following vehicle: 0.3% Sodium Chloride and 0.25% Sodium Phosphate monobasic, monohydrate in water. The sodium hydroxide (aqueous) was used to adjust the pH between 5.6-6.2.\nDosing suspensions/solutions were prepared every two weeks according to the most recent body weight (group mean) except for the LHRH-A solution. For EM-652.HCl administered orally, the vehicle (0.4% methylcellulose) was added to the tested compound, previously weighed into a glass bottle, at least 48 hours prior to the first dosing day. To ensure the homogeneity of dosing suspension, it was stirred at least 48 hours at 2 to 8 C. Dosing suspension was kept at 2 to 8 C. For DHEA solution applied topically, the ethanol was added to DHEA and the mix were agitated until dissolution of DHEA. Then, the polypropylene glycol was added and the solution agitated until homogeneity. Dosing solution was kept at 2 to 8 C. For LHRH-A solution injected subcutaneously, a dilution of the concentrated solution using the appropriate vehicle was prepared every month. Dosing solution was kept at 2 to 8 C.\nThe administration of tested compounds or vehicle was given from on Study Day 1 of the protocol. The tested compounds were given as suspension in 0.4% methylcellulose by oral gavage (0.5 ml/gavage/rat) once daily or were applied topically in 50% ethanol-50% propylene glycol (0.5 ml/application/rat) once daily. Rats from groups 5 to 8 received also the LHRH-A once daily by subcutaneous injection (0.5 ml/injection/rat). Rats not receiving a tested compound orally and/or topically received the appropriate vehicle alone.\nBody composition was measured on whole skeleton of animal under Isoflurane-induced anesthesia using dual energy x-ray absorptiometry (DEXA; QDR 4500A, Hologic) during the acclimation period and after 6 months of treatment."}, "[4]": {"conditions": "OVX rats, commercial rodent diet, 0.5 mg oral, EM-652.HCl 2.5 mg in combinations"}, "[5]": {"conditions": "high carbohydrate diet, 0.5 mg/rat oral gavage"}},
  "data": [
    {"compound": "Cc1c(-c2ccc(O)cc2)n(Cc2ccc(OCCN3CCCCC3)cc2)c2ccc(O)cc12", "note": "[ERA-923]", "values": [
      {"measurement": "EC50", "setting": "[1]; Homo sapiens, MCF7, text summary of table 12, read-out: EC50 of inhibition (antiestrogen activity)", "result": 3.7, "unit": "nM"},
      {"measurement": "Stimulation of DNA by tested compounds % of 1 nM E2 stimulation", "setting": "[1]; absence of E2", "result": "N.S."},
      {"measurement": "OVX-induced increase in total serum cholesterol levels", "setting": "[2]; 0.5 mg", "result": "completely prevented"},
      {"measurement": "effect on uterine weight compared to the OVX control animals", "setting": "[2]", "result": "no effect"},
      {"measurement": "prevention of body weight increase induced by ovariectomy", "setting": "[2]; OVX rats, 0.5 mg", "result": 59, "unit": "%"},
      {"measurement": "Cholesterol", "setting": "[2]; [4]", "result": "1.20 ± 0.10", "unit": "mmol/L"},
      {"measurement": "Final Body Weight", "setting": "[2]; [4]", "result": "248 ± 5", "unit": "g"},
      {"measurement": "Uterine Weight", "setting": "[2]; [4]", "result": "162.6 ± 5.2", "unit": "mg"},
      {"measurement": "Serum insulin (in words)", "setting": "[3]; 0.5 mg/rat", "result": "decreased"},
      {"measurement": "Brown adipose tissue Lipoprotein lipase activity", "setting": "[3]; [5]", "result": "1017 ± 83", "unit": "μU/g protein"},
      {"measurement": "Brown adipose tissue weight", "setting": "[3]; [5]", "result": "0.350 ± 0.019", "unit": "g"},
      {"measurement": "Cumulative food intake", "setting": "[3]; [5]", "result": "347 ± 9", "unit": "g"},
      {"measurement": "Serum glucose", "setting": "[3]; [5]", "result": "16.5 ± 2.7", "unit": "mmol/L"},
      {"measurement": "Serum insulin", "setting": "[3]; [5]", "result": "0.113 ± 0.029", "unit": "nmol/L"},
      {"measurement": "Serum leptin", "setting": "[3]; [5]", "result": "2.12 ± 0.44", "unit": "ng/mL"},
      {"measurement": "Serum total cholesterol", "setting": "[3]; [5]", "result": "1.66 ± 0.16", "unit": "mmol/L"},
      {"measurement": "Serum triglycerides", "setting": "[3]; [5]", "result": "0.93 ± 0.24", "unit": "mmol/L"},
      {"measurement": "Soleus muscle Lipoprotein lipase activity", "setting": "[3]; [5]", "result": "11.7 ± 1.9", "unit": "μU/g protein"},
      {"measurement": "Soleus muscle weight", "setting": "[3]; [5]", "result": "0.100 ± 0.004", "unit": "g"},
      {"measurement": "Total weight", "setting": "[3]; [5]", "result": "260 ± 5", "unit": "g"},
      {"measurement": "VastusLateralis muscle weight", "setting": "[3]; [5]", "result": "0.993 ± 0.33", "unit": "g"},
      {"measurement": "White adipose tissue inguinal Lipoprotein lipase activity", "setting": "[3]; [5]", "result": "766 ± 173", "unit": "μU/g protein"},
      {"measurement": "White adipose tissue inguinal weight", "setting": "[3]; [5]", "result": "0.326 ± 0.042", "unit": "g"},
      {"measurement": "White adipose tissue retroperitoneal Lipoprotein lipase activity", "setting": "[3]; [5]", "result": "1750 ± 140", "unit": "μU/g protein"},
      {"measurement": "White adipose tissue retroperitoneal weight", "setting": "[3]; [5]", "result": "1.27 ± 0.15", "unit": "g"}
    ]},
    {"compound": "LHRH ethylamide diacetate [LHRH-A]", "values": [
      {"measurement": "increase of the percentage of body fat", "setting": "intact female rats", "result": 58, "unit": "%"}
    ]}
  ]
}
